The values below come from patent publication US7101878B1 (Agouron Pharmaceuticals, Inc., priority 1998, dated 2006).

This test has as its target T1, mouse GnRH receptor (Mus musculus, UniProt Q01776).
T1 construct: expressed in transfected cells; host or cells: 293 cells
T1 sequence (Q01776 1-327): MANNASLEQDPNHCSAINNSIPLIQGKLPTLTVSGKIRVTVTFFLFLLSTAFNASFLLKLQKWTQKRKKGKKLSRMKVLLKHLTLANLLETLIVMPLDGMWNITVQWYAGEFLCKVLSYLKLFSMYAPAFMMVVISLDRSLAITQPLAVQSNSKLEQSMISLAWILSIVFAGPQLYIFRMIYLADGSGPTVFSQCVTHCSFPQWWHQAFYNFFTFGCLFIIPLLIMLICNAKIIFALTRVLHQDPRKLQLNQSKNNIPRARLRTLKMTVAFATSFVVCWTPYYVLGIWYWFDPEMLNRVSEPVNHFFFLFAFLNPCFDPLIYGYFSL
Kind of test: Radioligand binding, 125I-GnRH-A, 293 cells expressing mouse GnRH receptors. To be noted: 1 h, substrate remaining; 10 uM compound; closer to zero = closer to 100% inhibition; read-out: S%R 10 uM mGnRHR. A digest of the protocol: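 Bound label captured on 0.1% polyethyleneimine-treated GF/C filters, washed three times with PBS, counted. IC50 derived; identical set-up for every species.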
As to `Cc1cc2c(cc1Cc1ccc(C(=O)N3C[C@H]4CCCC[C@H]4CC3C(=O)NC(C)(C)C)o1)C(C)(C)CCC2(C)C` (stereo partly shown) [Compound 591], the remaining activity at 10 µM was found to be 48%.

Take `Cc1cc2c(cc1Cc1ccc(C(=O)N3CC(C)OC(C)C3)o1)C(C)(C)CCC2(C)C` (stereo not shown) [Compound 592]: the remaining activity at 10 µM stood at 17%.

`Cc1cc2c(cc1Cc1ccc(C(=O)NCCCCCO)o1)C(C)(C)CCC2(C)C` [Compound 593]: the remaining activity at 10 µM is 2%.

Consider `Cc1cc2c(cc1Cc1ccc(C(=O)NCCC3=CCCCC3)o1)C(C)(C)CCC2(C)C` [Compound 594], for which the remaining activity at 10 µM was 16%.

On to `Cc1cc2c(cc1Cc1ccc(C(=O)N(CCc3ccccn3)Cc3ccccc3)o1)C(C)(C)CCC2(C)C` [Compound 595], for which the remaining activity at 10 µM was 24%.

In the case of `Cc1cc2c(cc1Cc1ccc(C(=O)NCC(O)c3ccccc3)o1)C(C)(C)CCC2(C)C` (stereo not shown) [Compound 596], the remaining activity at 10 µM was -1%.

With `CCC(CO)NC(=O)c1ccc(Cc2cc3c(cc2C)C(C)(C)CCC3(C)C)o1` (stereo not shown) [Compound 597], the remaining activity at 10 µM is 11%.

On to `Cc1cc2c(cc1Cc1ccc(C(=O)N(CCC3CCCN3C)Cc3ccc4ccccc4c3)o1)C(C)(C)CCC2(C)C` (stereo not shown) [Compound 598], for which the remaining activity at 10 µM was -4%.

As to `CC(=O)N1CCCN(C(=O)c2ccc(Cc3cc4c(cc3C)C(C)(C)CCC4(C)C)o2)CC1` [Compound 599], the remaining activity at 10 µM is 28%.

Turning to `Cc1cc2c(cc1Cc1ccc(C(=O)N3CCC(CCCC4CCN(CCO)CC4)CC3)o1)C(C)(C)CCC2(C)C` [Compound 600], the remaining activity at 10 µM is -4%.

As to `Cc1cc2c(cc1Cc1ccc(C(=O)NCC(C)(C)CO)o1)C(C)(C)CCC2(C)C` [Compound 601], the remaining activity at 10 µM came out at 17%.

Turning to `Cc1cc2c(cc1Cc1ccc(C(=O)NCCNc3cccc4ccccc34)o1)C(C)(C)CCC2(C)C` [Compound 602], the remaining activity at 10 µM came out at 44%.

For the molecule `Cc1cc2c(cc1Cc1ccc(C(=O)N(CCN3CCCCC3)Cc3ccccc3)o1)C(C)(C)CCC2(C)C` [Compound 603], the remaining activity at 10 µM was -4%.

In the case of `Cc1cc2c(cc1Cc1ccc(C(=O)NCc3ccc(F)cc3)o1)C(C)(C)CCC2(C)C` [Compound 604], the remaining activity at 10 µM amounted to 4%.

On to `Cc1cc2c(cc1Cc1ccc(C(=O)N3CCC(C)CC3)o1)C(C)(C)CCC2(C)C` [Compound 605], for which the remaining activity at 10 µM was 19%.

Turning to `Cc1cc2c(cc1Cc1ccc(C(=O)N(Cc3ccco3)C3CC(=O)N(C)C3=O)o1)C(C)(C)CCC2(C)C` (stereo not shown) [Compound 606], the remaining activity at 10 µM was found to be 32%.

As to `COC(CNC(=O)c1ccc(Cc2cc3c(cc2C)C(C)(C)CCC3(C)C)o1)OC` [Compound 607], the remaining activity at 10 µM was -2%.

`Cc1cc2c(cc1Cc1ccc(C(=O)N(C)CCCN(C)C)o1)C(C)(C)CCC2(C)C` [Compound 608]: the remaining activity at 10 µM is 8%.

For `Cc1cc2c(cc1Cc1ccc(C(=O)NCCS)o1)C(C)(C)CCC2(C)C` [Compound 609], the remaining activity at 10 µM worked out at 47%.

Consider `Cc1cc2c(cc1Cc1ccc(C(=O)N(Cc3cccnc3)Cc3cccnc3)o1)C(C)(C)CCC2(C)C` [Compound 610], for which the remaining activity at 10 µM was found to be 0%.

Consider `COC(CN(C)C(=O)c1ccc(Cc2cc3c(cc2C)C(C)(C)CCC3(C)C)o1)OC` [Compound 611], for which the remaining activity at 10 µM stood at 11%.

Regarding `Cc1cc2c(cc1Cc1ccc(C(=O)N(Cc3ccsc3)C3CCN(Cc4ccccc4)C3)o1)C(C)(C)CCC2(C)C` (stereo not shown) [Compound 612], the remaining activity at 10 µM is 9%.

For the molecule `Cc1cc2c(cc1Cc1ccc(C(=O)NCc3cccc(CNC(=O)C(Cc4ccccc4)c4ccccc4)c3)o1)C(C)(C)CCC2(C)C` (stereo not shown) [Compound 613], the remaining activity at 10 µM was found to be 53%.

On to `COc1cc2c(cc1OC)C(CC#N)N(C(=O)c1ccc(Cc3cc4c(cc3C)C(C)(C)CCC4(C)C)o1)CC2` (stereo not shown) [Compound 614], for which the remaining activity at 10 µM stood at 48%.

Consider `CCN(CC)CCNC(=O)c1ccc(Cc2cc3c(cc2C)C(C)(C)CCC3(C)C)o1` [Compound 615], for which the remaining activity at 10 µM was determined as 7%.
